Biological target: T1, human PAH with the R408W mutation (A375 R408W cells) (Homo sapiens, UniProt P00439, R408W)
T1 construct: expressed in transfected cells
T1 sequence (P00439 1-452 R408W): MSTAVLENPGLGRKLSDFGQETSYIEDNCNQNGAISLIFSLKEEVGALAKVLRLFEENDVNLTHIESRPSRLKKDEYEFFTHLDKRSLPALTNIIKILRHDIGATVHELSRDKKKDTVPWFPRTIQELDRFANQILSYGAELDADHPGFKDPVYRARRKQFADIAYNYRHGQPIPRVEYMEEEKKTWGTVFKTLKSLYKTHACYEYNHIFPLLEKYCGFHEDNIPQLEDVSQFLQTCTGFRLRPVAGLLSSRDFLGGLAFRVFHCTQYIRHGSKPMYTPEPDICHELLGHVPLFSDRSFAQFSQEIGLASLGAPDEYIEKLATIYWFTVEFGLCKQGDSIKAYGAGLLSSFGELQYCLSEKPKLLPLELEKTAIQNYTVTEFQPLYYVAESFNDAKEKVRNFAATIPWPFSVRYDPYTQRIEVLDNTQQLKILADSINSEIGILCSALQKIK
Test: Cell Based Phenylalanine Flux Assay
Details: 24 hrs with compound, then 20 μM sepiapterin and 800 μM 13C9,15N-Phenylalanine for 4 hours, 13C-Tyrosine by LC-MS, average where tested multiple times
How it was run: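 Phenylalanine-to-tyrosine flux is measured in A375 cells carrying stable human R408W PAH. After 24 h compound exposure, 13C9,15N-Phe (800 μM) with sepiapterin (20 μM) is supplied for 4 h and media 13C-Tyr is read by LC-MS; AC50s are binned.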

[1] = A375 cells expressing R408W PAH

| SMILES | AC50 (A375 R408W cells) | AC50 [1] |
| --- | --- | --- |
| Cc1ccc(C)c2oc([C@@H]3c4nc[nH]c4CCN3C(=O)c3oc(C(C)(C)O)nc3C(F)F)nc12 [Example 659, (S)-(4-(difluoromethyl)-2-(2-hydroxypropan-2-yl)oxazol-5-yl)(4-(4,7-dimethylbenzo[d]oxazol-2-yl)-6,7-dihydro-1H-imidazo[4,5-c]pyridin-5(4H)-yl)methanone] | ≤ 0.5 µM | – |
| O=C(CCc1nccs1)N1CCc2[nH]cnc2[C@H]1c1nc2ccccc2o1 [Example 913, (S)-1-(4-(benzo[d]oxazol-2-yl)-6,7-dihydro-1H-imidazo[4,5-c]pyridin-5(4H)-yl)-3-(thiazol-2-yl)propan-1-one] | 0.5 to 1 µM | – |
| O=C(c1cncs1)N1CCc2[nH]cnc2C1c1nc2cc(F)ccc2o1 (centres unmarked) | – | ≥ 5 µM |
| O=C(c1cnn2cc(Br)c(Cl)cc12)N1CCc2[nH]cnc2[C@H]1c1nc2cc(F)ccc2o1 [Example 165, (S)-(6-bromo-5-chloropyrazolo[1,5-a]pyridin-3-yl)(4-(5-fluorobenzo[d]oxazol-2-yl)-6,7-dihydro-1H-imidazo[4,5-c]pyridin-5(4H)-yl)methanone] | ≤ 0.5 µM | – |
| Cc1nc(C2(O)CCC2)oc1C(=O)N1CCc2[nH]cnc2C1c1nc2cc(F)ccc2o1 (centres unmarked) | – | ≥ 5 µM |
| CC(C)(O)c1nc(C(F)F)c(C(=O)N2CCc3[nH]cnc3[C@H]2c2nc3c(F)ccc(F)c3o2)o1 [Example 345, (S)-(4-(4,7-difluorobenzo[d]oxazol-2-yl)-6,7-dihydro-1H-imidazo[4,5-c]pyridin-5(4H)-yl)(4-(difluoromethyl)-2-(2-hydroxypropan-2-yl)oxazol-5-yl)methanone] | ≤ 0.5 µM | – |
| O=C(c1nnc(-c2cnn(C(F)F)c2)o1)N1CCc2[nH]cnc2[C@@H]1c1nc2cccc(F)c2o1 [Example 876, (R)-(5-(1-(difluoromethyl)-1H-pyrazol-4-yl)-1,3,4-oxadiazol-2-yl)(4-(7-fluorobenzo[d]oxazol-2-yl)-6,7-dihydro-1H-imidazo[4,5-c]pyridin-5(4H)-yl)methanone] | ≤ 0.5 µM | – |
| CC(C)(O)c1nnc(C(=O)N2CCc3[nH]cnc3C2c2nc3cc(F)ccc3o2)o1 (centres unmarked) | – | 1 to 5 µM |
| O=C(c1ocnc1CF)N1CCc2[nH]cnc2[C@@H]1c1nc2cc(F)ccc2o1 [Example 180, (R)-(4-(5-fluorobenzo[d]oxazol-2-yl)-6,7-dihydro-1H-imidazo[4,5-c]pyridin-5(4H)-yl)(4-(fluoromethyl)oxazol-5-yl)methanone] | 1 to 5 µM | – |
| Cc1ccc2nc([C@H]3c4nc[nH]c4CCN3C(=O)c3nnc(-c4cnn(C)c4)o3)oc2c1 [Example 104, (R)-(5-(1-methyl-1H-pyrazol-4-yl)-1,3,4-oxadiazol-2-yl)(4-(6-methylbenzo[d]oxazol-2-yl)-6,7-dihydro-1H-imidazo[4,5-c]pyridin-5(4H)-yl)methanone] | ≥ 5 µM | – |
| O=C(c1cnco1)N1Cc2[nH]cnc2[C@H]1c1nc2ccccc2o1 (single isomer, unassigned) [Example 925] | ≥ 5 µM | – |
| O=C(c1ocnc1C(F)F)N1CCc2[nH]cnc2[C@@H]1c1nc2c(F)c(F)ccc2o1 [Example 349, (R)-(4-(4,5-difluorobenzo[d]oxazol-2-yl)-6,7-dihydro-1H-imidazo[4,5-c]pyridin-5(4H)-yl)(4-(difluoromethyl)oxazol-5-yl)methanone] | 0.5 to 1 µM | – |
| O=C(c1oc(-c2ncccn2)nc1C(F)F)N1CCc2[nH]cnc2[C@@H]1c1nc2cccc(F)c2o1 [Example 668, (R)-(4-(difluoromethyl)-2-(pyrimidin-2-yl)oxazol-5-yl)(4-(7-fluorobenzo[d]oxazol-2-yl)-6,7-dihydro-1H-imidazo[4,5-c]pyridin-5(4H)-yl)methanone] | ≤ 0.5 µM | – |
| CC(C)(O)c1nc(Cl)c(C(=O)N2CCc3[nH]cnc3[C@H]2c2nc3cc(F)ccc3o2)o1 [Example 129, (S)-(4-chloro-2-(2-hydroxypropan-2-yl)oxazol-5-yl)(4-(5-fluorobenzo[d]oxazol-2-yl)-6,7-dihydro-1H-imidazo[4,5-c]pyridin-5(4H)-yl)methanone] | 0.5 to 1 µM | – |
